`Nc1nc(N)nc(-c2ccc(-c3ccc(F)cc3)cc2)n1`: the melting point was > 260 °C.

In the case of `C=CC(=O)Oc1cccc(O)c1O`, the melting point fell in the range of 92 to 95 °C.

In turn, `O=P(O)(O)OC(Cn1cncn1)C(c1ccc(F)cc1F)n1cncn1` (centres undefined) had a melting point of 93 °C.

With `C#CCCCC(=O)Nc1nc2nn(C)cc2c2nc(-c3ccco3)nn12`, the melting point is 210 to 216 °C.

As for `O=S(=O)(c1ccccc1)c1ccccn1`, the melting point was in the range of 90 to 91 °C.

For `CC1(C)NC(=O)N(c2ccc([N+](=O)[O-])c(C(F)(F)F)c2)C1=O`, the melting point is 149 °C.

Consider `O=C1c2ccccc2-c2c1nc(Cl)c1ccccc21`, for which the melting point lay within 242 to 244 °C.

As to `O=C(c1ccc([N+](=O)[O-])cc1)c1ccc2[nH]c(=O)sc2c1`, the melting point lay within 148 to 152 °C.

The compound `C=CCN1C(=O)C2CC(c3ccc(N)cc3)(C2)C1=O` returned a melting point of 176 to 178 °C.

Regarding `O=C1c2ccccc2S(=O)(=O)N1C(c1cccs1)c1nnnn1-c1ccccc1` (centres undefined), the melting point lay within 192 to 193 °C.

Consider `COc1ccc(F)cc1OCC=O`, for which the melting point fell in the range of 92.5 to 95 °C.

In turn, `Cc1cc2ncc(Nc3ccc(Br)cc3)nc2cc1C` yielded a melting point of 235 °C.

`CC1(CCCn2cc(C=O)c3ccccc32)OCCO1` registered a melting point of 52 to 55 °C.

Compound `CC1CCCC(C)N1S(=O)(=O)N[C@@H](Cc1ccc(NC(=O)c2c(Cl)cccc2Cl)cc1)C(=O)O` (some centres undefined) came in with a melting point of 159 °C.

On to `CCOC(=O)c1cc(Cl)c(S(C)(=O)=O)c(-c2cc(C)no2)c1C`, for which the melting point fell in the range of 126 to 129 °C.

As for `O=C1N(CC2CCCO2)c2ccccc2C12COc1cc3c(cc12)C(=NO)CO3` (centres undefined), the melting point lay in the range of 82 to 100 °C.

In the case of `O=C1OC(CCI)C(O)=C1OCc1ccccc1` (centres undefined), the melting point fell in the range of 101 to 104 °C.

The compound `CN1C(=O)CC[C@]2(C)c3ccc(-c4ccc(F)cc4F)cc3CC[C@@H]12` registered a melting point of 108 to 112 °C.

`CN(C)CCCn1cc(Br)c2c3c(c(-c4ccccc4Cl)cc21)C(=O)NC3=O` came in with a melting point of 160 to 162 °C.

Consider `COC(=O)C(=O)Nc1ccc(C#N)c(NC(=O)C(=O)OC)c1`, for which the melting point fell in the range of 155 to 160 °C.

Compound `CC1N=Cc2cc(Cl)ccc2-n2c(Cc3ccccc3)nnc21` (centres undefined) showed a melting point of 195 to 197 °C.

As to `CC1(C)CCC2(C(=O)O)CCC3(C)C(=CCC4C5(C)Cc6c(n[nH]c6N)C(C)(C)C5CCC43C)C2C1` (centres undefined), the melting point was 263 to 266 °C.

`CCOCC1=C(C(=O)OCC)C(c2cccc(C#N)c2)C(C(=O)OCC)=C(CC)N1` (centres undefined) gave a melting point of 125 °C.

On to `N#Cc1c(N2CCc3ccccc3CC2)nc(N)n(N)c1=O`, for which the melting point was > 200 °C.

With `O=C(O)c1c2c(nc3ccccc13)-c1cc3sc4ccccc4c3cc1CC2`, the melting point lay in the range of 190 to 193 °C.

With `O=[N+]([O-])c1ccc2c(c1)C=CCCO2`, the melting point lay within 94 to 95.5 °C.

Consider `COc1ccc2c(c1)Sc1cc(OC)ccc1N2C`, for which the melting point fell in the range of 166 to 167 °C.

As for `CC12CCCc3cc(NC(=O)c4ccc(C(=O)O)cn4)cc(c31)CCC2`, the melting point lay within 212 to 213 °C.

The compound `Nc1ccccc1NC(=O)Nc1ccc(-c2ccc(C(=O)N3CCN4CCC3CC4)o2)cc1` registered a melting point of 174 °C.

In turn, `CC(C)(C)OC(=O)[C@@H](CCCOS(=O)(=O)c1ccc2ccccc2c1)C[C@H](NC(c1ccccc1)(c1ccccc1)c1ccccc1)C(=O)OC(C)(C)C` came in with a melting point of 119 °C.

Compound `CN(C)S(=O)(=O)c1ccc(C(N)=O)c(C(F)(F)F)c1` came in with a melting point of 149 to 156 °C.

Consider `CC(=O)NC(C)(C)c1ccc(-c2nc(Nc3ccc(F)cc3)ncc2C#N)cc1`, for which the melting point lay within 212 to 216 °C.

In turn, `N#Cc1ccc(-c2cccc(C=O)n2)cc1` had a melting point of 158 to 159 °C.

`CCC1C(C)=NN=C(c2ccc(O)c(OC)c2)c2cc(OC)c(O)cc21` (centres undefined) came in with a melting point of 210 to 212 °C.

Take `CN(C)Cc1c[nH]c2cc(Cl)ccc12`: the melting point lay within 130 to 133 °C.

As for `CCCCc1nn(-c2cc(NC(=O)CC)ccc2Cl)c(=O)n1Cc1ccc(-c2ccccc2S(=O)(=O)NC(C)(C)C)cc1F`, the melting point fell in the range of 103 to 105 °C.

Take `CCOC(=O)c1c(C(F)(F)F)nc(C(F)(F)F)c(C)c1OC(C)=O`: the melting point fell in the range of 49 to 51 °C.

The compound `C=Cc1ccnc(-c2cc(C)ccn2)c1` returned a melting point of 82 to 86 °C.

Take `C(CCc1cncn1Cc1ccccc1)=C(c1ccccc1)c1ccccc1`: the melting point was 161 to 168 °C.

As to `Cc1nc(C)c(C(C)(O)c2ccccn2)s1` (centres undefined), the melting point was 104 to 105 °C.

In turn, `c1ccnc2ccccc2c2ccccc2cc1` gave a melting point of 165 to 167 °C.

Compound `C=Cc1cc2cc(OC)ccc2[nH]1` showed a melting point of 80 to 81 °C.

The compound `COc1cc(C(=O)N2Cc3ccc(C(=O)NCc4ccccc4C)n3Cc3ccccc32)ccc1-c1ccccc1C` displayed a melting point of 204 °C.

In turn, `CN(C(=O)Cn1c(-c2ccc(Cl)cc2)nc2cccnc21)c1ccccc1` had a melting point of 170 to 171 °C.

As to `CCCOc1ccc(S(=O)(=O)N2CCN(C)CC2)cc1-c1nc2cc(N)c([N+](=O)[O-])cc2c(=O)[nH]1`, the melting point was 270 to 271 °C.

Compound `C#CCCCOc1ccc(/C=C/C(=O)Nc2ccccc2C(=O)O)cc1OC` had a melting point of 166 to 168 °C.

Consider `COc1nscc1C(N)=O`, for which the melting point lay in the range of 165 to 168 °C.

Compound `O=C(/C=C/c1c(-c2ccc(F)cc2)nc2sccn12)c1ccc2ccccc2c1` showed a melting point of 216 to 218 °C.

`COC(=O)c1ncccc1Br` registered a melting point of 34 to 36 °C.

For the compound `CN1C[C@@H]2C[C@H]1CN2C(=O)N1CCC(c2[nH]nc3c2C(=O)c2c(NC(=O)NN4CCOCC4)cccc2-3)CC1`, the melting point lay in the range of 224 to 225 °C.

Take `CC(=NOCCOc1ccc(CC2SC(=O)NC2=O)cc1)c1ccc(Cl)cc1` (centres undefined): the melting point lay within 118 to 119 °C.

For the compound `CC(C)(C)n1nc(Cc2ccccc2)c(C#N)c1N`, the melting point was in the range of 106 to 110 °C.

`CC(C(=O)O)c1ccc2cc(OCc3ccc4ccccc4n3)ccc2c1` (centres undefined) came in with a melting point of 186 to 187 °C.

Take `O=C1Nc2ccc(F)cc2C1CCCCN1CCN(c2cc(Cl)cc3c2OCCO3)CC1` (centres undefined): the melting point lay in the range of 146 to 148 °C.

With `COC(=O)/C(=C\O)c1ccccc1C`, the melting point was in the range of 48 to 49 °C.

As to `CCC#CC(C)(C)NC(=O)C(CC)Oc1cncc(Br)c1` (centres undefined), the melting point lay in the range of 90 to 92 °C.

In turn, `COc1ccc(C(=O)c2ccon2)cc1` displayed a melting point of 71 to 73 °C.

Turning to `CC(C)NC(Nc1cc(C(F)(F)F)cc(C(F)(F)F)c1)=C(C#N)S(C)(=O)=O`, the melting point lay within 188 to 191 °C.

`CN1CCC(c2cc3c(N(C)C)cccc3c(=O)[nH]2)CC1` yielded a melting point of 216 to 218 °C.

In the case of `c1ccc(C(c2ccccc2)(c2cncnc2)n2ccnc2)cc1`, the melting point came out at 161 °C.

In turn, `CNC(=O)c1cccc(F)c1Nc1nc(Nc2ccc3c(c2)C(=O)NCCC3)ncc1Cl` had a melting point of 200 °C.

`Cc1cccnc1C1CC(C)(C)Oc2ccccc21` (centres undefined) returned a melting point of 100 to 102 °C.

`CC(CO)Nc1c(Br)cnc2cc(Cl)ccc12` (centres undefined) registered a melting point of 145 to 147 °C.

As for `CCOC(=O)c1ccc(-c2nnc(-c3ccccc3N)o2)cc1`, the melting point fell in the range of 174 to 175 °C.

Take `CC(C)(C)COc1nc(N2CCNCC2)nc(N2CCS(=O)CC2)c1[N+](=O)[O-]`: the melting point lay in the range of 156 to 158 °C.

In the case of `CCCc1c(OCCOCCOCCOc2ccc3ccc(OCC(=O)O)cc3c2C(C)=O)ccc(C(C)=O)c1O`, the melting point was in the range of 110 to 111 °C.

`C=CCC(N)c1cccc(OC)c1` (centres undefined) had a melting point of 30 °C.

As to `CS(=O)(=O)c1nc2ccccn2c1S(N)(=O)=O`, the melting point fell in the range of 214 to 216 °C.

With `CN(C)CCCOc1ccc(/C=C/C(=O)O)cc1`, the melting point was 191 to 193 °C.

Turning to `O=C1[C@H](O)[C@@H](O)C(=O)N1Cc1ccccc1`, the melting point came to 100 °C.

`Cc1cc(Oc2c(Cl)cc(C(F)(F)F)cc2Cl)nn1C(=O)NCCN1CCOCC1` had a melting point of 99 to 101 °C.

For `CC(C)N1CCC(n2cc(C3=C(c4cn(C)c5ccccc45)C(=O)NC3=O)c3ccccc32)CC1`, the melting point was > 250 °C.

The compound `O=C(c1ccc(Cl)cc1)C(O)(Cn1cncn1)C(Cl)(Cl)Cl` (centres undefined) yielded a melting point of 173 to 174 °C.

`NS(=O)(=O)c1nnc(NC(=O)c2cnn3c(C(F)F)cc(-c4ccc(C(F)(F)F)cc4)nc23)s1`: the melting point amounted to 284 °C.

With `Cc1ccc2c(c1)cc(C(=O)OCc1ccccc1)n2CC(=O)OC(C)(C)C`, the melting point was in the range of 80 to 82 °C.

As for `COc1ccc2oc(N(C=O)[C@@H](Cc3ccccn3)c3ncc(-c4ccc(-n5ccnc5)cc4)n3C)cc2c1`, the melting point lay in the range of 151 to 153 °C.

Take `COCCSc1sc(-c2cc[nH]n2)c2c1C(=O)CC(C)(C)C2`: the melting point is 159 to 162 °C.

Consider `CC(C)(C)OC(=O)NC(CC(O)CNC(Cc1ccccc1)C(O)CNC(=O)OCc1ccccc1)c1ccccc1` (centres undefined), for which the melting point fell in the range of 120 to 121 °C.

Consider `CS(=O)(=O)c1ccc(-c2cnn(-c3ccc(F)cc3)c(=O)c2-c2cccc(F)c2)cc1`, for which the melting point lay in the range of 199 to 201 °C.

Compound `CCCCCn1c2ccccc2c2cc(C(=O)OCC)ncc21` yielded a melting point of 92 to 93 °C.

In turn, `CCOC(=O)C1=C(C=O)Nc2ccnc(OC(C)C)c2C1c1ccccc1C(F)(F)F` (centres undefined) gave a melting point of 108 to 109 °C.

On to `O=C1NCC=NN1c1ccc(C(CCl)c2ccc(Cl)cc2)c(C(F)(F)F)c1` (centres undefined), for which the melting point was in the range of 157 to 158 °C.

Take `Cc1ccccc1C(=O)NC(n1cncn1)C(Cl)(Cl)CCl` (centres undefined): the melting point fell in the range of 133 to 137 °C.

Regarding `CN(C(=O)c1ccc(-n2cc3ccccc3n2)cc1)C1CCN(C(=O)OC(C)(C)C)CC1`, the melting point was in the range of 176 to 177 °C.

With `CC1=C(C(=O)O)C(c2ccccc2Cl)C(c2cccs2)=NN1` (centres undefined), the melting point amounted to 188 °C.

Turning to `CCCc1c(Cc2ccc(-c3ccccc3-c3nnn[nH]3)cc2)c(O)nc2ccnn12`, the melting point was 260 °C.

Consider `CCCCn1c(=O)n2cnnc2c2[nH]c(-c3cc(S(=O)(=O)N4CCN(C(C)(C)CO)CC4)ccc3OCCC)nc21`, for which the melting point was 237 °C.

`Fc1cnccc1Nn1ccc2cc(OCc3ccccc3)ccc21`: the melting point is 140 °C.

`ON=Cc1ccncc1`: the melting point lay within 180 to 182 °C.
